In US20260364184A1, “COMPOUND BASED ON OXOISOINDOLINYL-SUBSTITUTED TETRAHYDROPYRIMIDINE-DIONE AND USE THEREOF” (GLUETACS THERAPEUTICS (SHANGHAI) CO., LTD., priority 2023, published 2026):

How the values were obtained:
Format in all cases: cell-based
C-ABL = molecular target: T1, C-ABL (Homo sapiens, UniProt P00519); test: Western blot degradation of C-ABL; details: K562 Cell; 24 hours
T1 construct: K562 also holds p210 BCR-ABL (BCR P11274 fused to ABL1)
Protocol: (§1) Conventional Western blot assay was performed to evaluate the effects of the compounds of the present disclosure on the expression of target proteins in cells.
(§2) (1) Cell Seeding and Protein Harvesting: The selected cells were processed according to the cell seeding procedure and protein harvesting procedure in Table II-2.
(§3) (2) To the collected supernatant, 5×SDS sample loading buffer was added, followed by denaturation at 95 °C for 5 minutes. The denatured samples were then separated by SDS-PAGE electrophoresis on a polyacrylamide gel. Proteins were transferred to a nitrocellulose membrane (0.45 μm NC membrane), blocked with blocking buffer at room temperature for 1 hour, and subjected to antibody incubation and development procedures according to the antibody manufacturer's instructions (Cell Signaling Technology).
(§4) Half-Maximal Degradation Concentration value (the drug concentration required for degrading proteins by 50%, abbreviated as DC50) reads method: comparing the grayscale values of Western blot bands from drug-treated samples with those from blank DMSO-treated controls, and identifying the drug concentration range at which the grayscale value is half that of the DMSO-treated control bands.
(§5) DC50 values can be calculated using ImageJ software to measure grayscale values of Western blot bands from drug-treated samples. The concentration-response curve is fitted to estimate the drug concentration corresponding to half the grayscale value.
(§6) Target protein remaining (%) refers to the percentage of target protein remaining in cells after treatment with protein degrader compounds.
(§7) Calculation method for target protein remaining (%): Use ImageJ software to measure grayscale values of Western blot bands from drug (protein degrader)-treated samples. The grayscale value of drug-treated bands is divided by that of internal control protein bands, and the resulting quotient is normalized to obtain the relative percentage of remaining target protein after protein degrader treatment.
(§8) Target protein degradation rate (%)=1−target protein remaining (%).

[1] = tested on: Human acute lymphocytic leukemia T lymphocytes cell line (CCRF-CEM); test: Inhibition of CCRF-CEM cell proliferation (CellTiter luminescent viability); details: Homo sapiens, 96 h, Table IL3, BCR-ABL inhibitor-based; for inhibition at 0.01 µM: 10 nM, read-out: Inhibition Rate at 10 nM (%); for inhibition at 0.5 µM: 500 nM, read-out: Inhibition Rate at 500 nM (%)
BRG1 = molecular target: T2, BRG1 (Homo sapiens, UniProt P51532); test: Western blot degradation of BRG1 (SMARCA4); details: Molt-4 Cell; 24 hours
T2 construct: expression of target proteins in cells; endogenous in cells
Protocol: as §1, §2, §3, §4, §5, §6, §7, §8

BRM = molecular target: T3, BRM (Homo sapiens, UniProt P51531); test: Western blot degradation of BRM (SMARCA2); details: Molt-4 Cell; 24 hours
T3 construct: expression of target proteins in cells; endogenous in cells
Protocol: as §1, §2, §3, §4, §5, §6, §7, §8

[2] = tested on: Human Multiple myeloma cell line (MM.1S); test: Inhibition of MM.1S cell proliferation (CellTiter luminescent viability); details: Homo sapiens, MM1.S, Table IL1, BCR-ABL inhibitor-based, 96 hours
Procedure, shortened: (§9)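 IC50 is fitted from luminescent viability (CellTiter-Meiluncell) curves. Nine-point, 5-fold dilution series (top stock 2000 μM) are added at 0.5 μL per 100 μL medium to cells plated the day before, with growth at 37 °C and 5% CO2.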

[3] = tested on: Human myeloid monocytic leukemia cell line (MV-4-11); test: Inhibition of MV-4-11 cell proliferation (CellTiter luminescent viability); details: Homo sapiens, MV4-11, Table IL2, BCR-ABL inhibitor-based, 96 hours; for inhibition at 0.01 µM: MV-4-11, 10 nM, read-out: Inhibition Rate at 10 nM (%); for inhibition at 0.5 µM: MV-4-11, 500 nM, read-out: Inhibition Rate at 500 nM (%)
Procedure, shortened: as §9

T2 sequence (P51532 whole entry): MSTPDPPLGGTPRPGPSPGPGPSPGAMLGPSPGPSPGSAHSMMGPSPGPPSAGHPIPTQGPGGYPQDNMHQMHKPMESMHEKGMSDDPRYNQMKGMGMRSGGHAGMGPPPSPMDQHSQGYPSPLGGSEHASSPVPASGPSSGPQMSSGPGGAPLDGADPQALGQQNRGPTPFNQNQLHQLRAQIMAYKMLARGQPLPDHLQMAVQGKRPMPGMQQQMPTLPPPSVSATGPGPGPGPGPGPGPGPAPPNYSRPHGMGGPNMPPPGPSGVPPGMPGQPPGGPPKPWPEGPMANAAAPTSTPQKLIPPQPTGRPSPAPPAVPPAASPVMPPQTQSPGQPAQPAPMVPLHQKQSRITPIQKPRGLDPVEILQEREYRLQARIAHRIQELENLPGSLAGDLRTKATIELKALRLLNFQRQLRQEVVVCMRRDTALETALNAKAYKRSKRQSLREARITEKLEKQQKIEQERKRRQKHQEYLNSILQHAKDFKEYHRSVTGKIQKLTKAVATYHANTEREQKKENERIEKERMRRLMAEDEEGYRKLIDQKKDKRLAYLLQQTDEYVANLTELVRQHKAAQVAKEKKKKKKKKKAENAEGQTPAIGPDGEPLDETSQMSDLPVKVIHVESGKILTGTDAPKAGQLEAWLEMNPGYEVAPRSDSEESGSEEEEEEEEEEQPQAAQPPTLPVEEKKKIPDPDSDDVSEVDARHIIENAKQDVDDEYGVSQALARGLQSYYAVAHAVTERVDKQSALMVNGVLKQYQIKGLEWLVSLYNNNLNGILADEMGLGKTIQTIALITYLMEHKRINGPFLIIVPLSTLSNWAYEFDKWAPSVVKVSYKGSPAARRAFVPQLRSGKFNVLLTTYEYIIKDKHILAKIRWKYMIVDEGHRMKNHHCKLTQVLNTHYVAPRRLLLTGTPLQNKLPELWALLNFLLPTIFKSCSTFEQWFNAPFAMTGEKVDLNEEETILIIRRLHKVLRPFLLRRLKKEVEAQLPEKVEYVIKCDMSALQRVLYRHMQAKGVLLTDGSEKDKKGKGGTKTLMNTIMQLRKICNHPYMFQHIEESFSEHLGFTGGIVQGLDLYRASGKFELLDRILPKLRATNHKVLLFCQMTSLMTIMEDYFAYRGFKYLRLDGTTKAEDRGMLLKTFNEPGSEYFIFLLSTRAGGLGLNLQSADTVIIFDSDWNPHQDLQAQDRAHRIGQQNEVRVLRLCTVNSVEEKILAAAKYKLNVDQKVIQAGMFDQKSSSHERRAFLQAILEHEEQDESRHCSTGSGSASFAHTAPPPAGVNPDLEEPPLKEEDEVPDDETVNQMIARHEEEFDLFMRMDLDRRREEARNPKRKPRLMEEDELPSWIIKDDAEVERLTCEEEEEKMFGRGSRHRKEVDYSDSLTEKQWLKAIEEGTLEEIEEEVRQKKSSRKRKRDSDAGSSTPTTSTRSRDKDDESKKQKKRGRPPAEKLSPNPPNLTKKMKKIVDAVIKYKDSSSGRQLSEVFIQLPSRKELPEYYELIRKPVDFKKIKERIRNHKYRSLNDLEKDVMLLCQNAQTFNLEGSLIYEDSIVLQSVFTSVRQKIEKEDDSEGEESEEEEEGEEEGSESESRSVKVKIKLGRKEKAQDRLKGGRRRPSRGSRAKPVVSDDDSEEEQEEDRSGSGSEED
T1 sequence (P00519 whole entry, the tested form may be a part): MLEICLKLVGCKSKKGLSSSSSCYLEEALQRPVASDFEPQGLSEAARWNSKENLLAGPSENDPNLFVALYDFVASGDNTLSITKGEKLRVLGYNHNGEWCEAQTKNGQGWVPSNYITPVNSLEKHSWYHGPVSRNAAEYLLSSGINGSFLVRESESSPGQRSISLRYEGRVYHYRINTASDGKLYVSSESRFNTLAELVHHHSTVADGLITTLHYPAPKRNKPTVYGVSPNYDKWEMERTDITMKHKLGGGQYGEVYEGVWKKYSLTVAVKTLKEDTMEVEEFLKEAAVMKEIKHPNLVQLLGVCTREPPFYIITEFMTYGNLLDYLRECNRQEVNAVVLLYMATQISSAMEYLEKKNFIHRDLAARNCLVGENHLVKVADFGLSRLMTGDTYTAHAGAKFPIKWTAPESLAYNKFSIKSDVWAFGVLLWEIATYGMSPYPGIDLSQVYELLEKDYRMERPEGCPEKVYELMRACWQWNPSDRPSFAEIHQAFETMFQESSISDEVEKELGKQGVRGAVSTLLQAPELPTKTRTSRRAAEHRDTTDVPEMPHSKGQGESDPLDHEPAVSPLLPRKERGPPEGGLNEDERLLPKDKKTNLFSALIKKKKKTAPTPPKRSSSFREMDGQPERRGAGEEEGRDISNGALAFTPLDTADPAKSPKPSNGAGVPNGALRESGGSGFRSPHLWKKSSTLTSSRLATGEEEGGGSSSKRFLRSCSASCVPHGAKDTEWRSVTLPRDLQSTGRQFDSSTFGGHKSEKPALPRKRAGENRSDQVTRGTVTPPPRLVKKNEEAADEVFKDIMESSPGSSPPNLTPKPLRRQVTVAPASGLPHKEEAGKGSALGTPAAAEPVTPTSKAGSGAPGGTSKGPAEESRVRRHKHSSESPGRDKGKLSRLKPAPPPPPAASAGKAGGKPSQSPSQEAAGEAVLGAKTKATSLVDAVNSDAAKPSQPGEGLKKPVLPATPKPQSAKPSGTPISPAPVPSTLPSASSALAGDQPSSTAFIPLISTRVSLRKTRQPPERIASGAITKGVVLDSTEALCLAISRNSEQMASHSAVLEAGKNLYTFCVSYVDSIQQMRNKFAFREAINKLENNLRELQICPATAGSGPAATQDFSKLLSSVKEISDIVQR
T1 sequence (Q96SW2 whole entry partner, the tested form may be a part): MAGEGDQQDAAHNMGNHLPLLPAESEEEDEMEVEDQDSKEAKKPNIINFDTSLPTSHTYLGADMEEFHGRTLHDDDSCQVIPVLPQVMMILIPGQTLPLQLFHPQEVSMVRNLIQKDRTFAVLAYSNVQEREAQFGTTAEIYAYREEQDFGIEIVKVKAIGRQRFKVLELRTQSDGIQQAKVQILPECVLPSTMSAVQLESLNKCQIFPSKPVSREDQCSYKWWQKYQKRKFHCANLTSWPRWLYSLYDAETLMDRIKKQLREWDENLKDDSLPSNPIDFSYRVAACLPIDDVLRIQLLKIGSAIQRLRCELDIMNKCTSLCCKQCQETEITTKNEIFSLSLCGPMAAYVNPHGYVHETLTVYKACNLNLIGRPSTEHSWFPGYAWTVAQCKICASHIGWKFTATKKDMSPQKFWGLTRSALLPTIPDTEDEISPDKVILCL
T3 sequence (P51531 whole entry): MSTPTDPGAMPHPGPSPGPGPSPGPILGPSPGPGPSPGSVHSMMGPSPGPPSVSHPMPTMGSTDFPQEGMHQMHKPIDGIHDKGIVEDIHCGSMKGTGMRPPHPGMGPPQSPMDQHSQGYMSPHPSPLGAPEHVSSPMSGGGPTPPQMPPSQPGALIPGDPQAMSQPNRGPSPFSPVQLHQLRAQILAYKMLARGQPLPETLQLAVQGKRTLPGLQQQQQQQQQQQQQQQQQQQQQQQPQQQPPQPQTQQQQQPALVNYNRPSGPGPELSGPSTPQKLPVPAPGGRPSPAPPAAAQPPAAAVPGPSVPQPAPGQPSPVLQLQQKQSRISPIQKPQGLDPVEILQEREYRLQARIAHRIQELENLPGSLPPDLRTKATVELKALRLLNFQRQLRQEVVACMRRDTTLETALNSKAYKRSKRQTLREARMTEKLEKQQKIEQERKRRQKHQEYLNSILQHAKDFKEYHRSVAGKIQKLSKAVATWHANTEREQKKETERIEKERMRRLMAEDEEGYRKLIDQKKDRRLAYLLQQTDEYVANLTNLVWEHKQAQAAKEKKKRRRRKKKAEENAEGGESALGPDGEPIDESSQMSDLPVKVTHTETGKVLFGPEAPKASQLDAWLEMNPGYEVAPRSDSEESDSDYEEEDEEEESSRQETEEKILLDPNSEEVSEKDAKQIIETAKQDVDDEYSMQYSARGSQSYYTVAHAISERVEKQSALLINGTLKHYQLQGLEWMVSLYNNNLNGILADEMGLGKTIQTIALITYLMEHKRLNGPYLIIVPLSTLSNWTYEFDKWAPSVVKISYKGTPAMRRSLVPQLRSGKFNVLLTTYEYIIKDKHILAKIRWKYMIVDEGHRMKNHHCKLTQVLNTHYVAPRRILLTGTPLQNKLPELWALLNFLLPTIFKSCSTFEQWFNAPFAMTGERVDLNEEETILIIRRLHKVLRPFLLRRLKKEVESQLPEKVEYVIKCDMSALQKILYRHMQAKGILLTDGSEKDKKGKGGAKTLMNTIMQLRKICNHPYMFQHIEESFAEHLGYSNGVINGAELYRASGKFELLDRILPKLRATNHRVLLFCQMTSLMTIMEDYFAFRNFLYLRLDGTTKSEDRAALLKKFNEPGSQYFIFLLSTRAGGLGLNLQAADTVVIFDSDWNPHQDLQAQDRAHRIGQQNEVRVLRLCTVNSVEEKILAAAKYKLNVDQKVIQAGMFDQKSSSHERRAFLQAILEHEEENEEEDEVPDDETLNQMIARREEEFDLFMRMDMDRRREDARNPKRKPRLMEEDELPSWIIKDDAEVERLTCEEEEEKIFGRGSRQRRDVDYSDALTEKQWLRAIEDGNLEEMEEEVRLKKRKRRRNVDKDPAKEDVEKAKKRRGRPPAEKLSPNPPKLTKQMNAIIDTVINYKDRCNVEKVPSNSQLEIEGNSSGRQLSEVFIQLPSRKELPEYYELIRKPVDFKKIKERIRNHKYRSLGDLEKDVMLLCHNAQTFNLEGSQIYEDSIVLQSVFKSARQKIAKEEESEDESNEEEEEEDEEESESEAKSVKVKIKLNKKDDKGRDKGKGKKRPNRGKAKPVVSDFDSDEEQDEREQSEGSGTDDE

| Structure (SMILES) | Degradation of substrate protein C-ABL; BCR-ABL (substrate protein remaining %) (C-ABL) | Degradation of substrate protein BRM (substrate protein remaining %) (BRM) | Degradation of substrate protein BRG1 (substrate protein remaining %) (BRG1) | also measured |
| --- | --- | --- | --- | --- |
| O=C1CCN(N2C(=O)c3cccc(N4CCC(CN5CCN(C6CCN(c7ncc(C(=O)Nc8ccc(OC(F)(F)Cl)cc8)cc7-c7cc[nH]n7)CC6)CC5)CC4)c3C2=O)C(=O)N1 [GT-08361, N-(4-(chlorodifluoromethoxy)phenyl)-6-(4-(4-((1-(2-(2,4-dioxotetrahydropyrimidin-1(2H)-yl)-1,3-dioxoisoindolin-4-yl)piperidin-4-yl)methyl)piperazin-1-yl)piperidin-1-yl)-5-(1H-pyrazol-3-yl)nicotinamide] | A (0%≤substrate protein remaining %≤80%) | – | – | inhibition at 0.01 µM [1]: 20 to 30%; inhibition at 0.5 µM [1]: 20 to 30% |
| O=C1CCN(N2C(=O)c3cccc(N4CCC(CN5CCN(c6ncc(C(=O)Nc7ccc(OC(F)(F)Cl)cc7)cc6-c6cc[nH]n6)CC5)CC4)c3C2=O)C(=O)N1 [GT-08357, N-(4-(chlorodifluoromethoxy)phenyl)-6-(4-((1-(2-(2,4-dioxotetrahydropyrimidin-1(2H)-yl)-1,3-dioxoisoindolin-4-yl)piperidin-4-yl)methyl)piperazin-1-yl)-5-(1H-pyrazol-3-yl)nicotinamide] | A (0%≤substrate protein remaining %≤80%) | – | – | – |
| Cc1ccc(C(=O)Nc2ccc(N3CCN(Cc4ccc5c(c4)C(=O)N(N4CCC(=O)NC4=O)C5=O)CC3)c(C(F)(F)F)c2)cc1C#Cc1cnc2cccnn12 [GT-08219, N-(4-(4-((2-(2,4-dioxotetrahydropyrimidin-1(2H)-yl)-1,3-dioxoisoindolin-5-yl)methyl)piperazin-1-yl)-3-(trifluoromethyl)phenyl)-3-(imidazo[1,2-b]pyridazin-3-ylethynyl)-4-methylbenzamide] | A (0%≤substrate protein remaining %≤80%) | – | – | – |
| Nc1nnc(-c2ccccc2O)cc1N1CCN(CC2CCN(c3ccc4c(c3)C(=O)N(N3CCC(=O)NC3=O)C4=O)CC2)CC1 [GT-04954, 5-(4-((4-(3-amino-6-(2-hydroxyphenyl)pyridazin-4-yl)piperazin-1-yl)methyl)piperidin-1-yl)-2-(2,4-dioxotetrahydropyrimidin-1(2H)-yl)isoindoline-1,3-dione] | – | A (0%≤substrate protein remaining %≤80%) | A (0%≤substrate protein remaining %≤80%) | – |
| O=C1CCN(N2C(=O)c3ccc(N4CCC(CN5CCN(c6ncc(C(=O)Nc7ccc(OC(F)(F)Cl)cc7)cc6-c6cc[nH]n6)CC5)CC4)cc3C2=O)C(=O)N1 [GT-08356, N-(4-(chlorodifluoromethoxy)phenyl)-6-(4-((1-(2-(2,4-dioxotetrahydropyrimidin-1(2H)-yl)-1,3-dioxoisoindolin-5-yl)piperidin-4-yl)methyl)piperazin-1-yl)-5-(1H-pyrazol-3-yl)nicotinamide] | A (0%≤substrate protein remaining %≤80%) | – | – | inhibition at 0.01 µM ([2]; 10 nM, read-out: Inhibition Rate at 10 nM (%)): 20 to 30%; inhibition at 0.5 µM ([2]; 500 nM, read-out: Inhibition Rate at 500 nM (%)): 30 to 40% |
| Cc1ccc(C(=O)Nc2ccc(N3CCC(N(C)Cc4ccc5c(c4)CN(N4CCC(=O)NC4=O)C5=O)CC3)c(C(F)(F)F)c2)cc1C#Cc1cnc2cccnn12 [GT-08220, N-(4-(4-(((2-(2,4-dioxotetrahydropyrimidin-1(2H)-yl)-1-oxoisoindolin-5-yl)methyl)(methyl)amino)piperidin-1-yl)-3-(trifluoromethyl)phenyl)-3-(imidazo[1,2-b]pyridazin-3-ylethynyl)-4-methylbenzamide] | A (0%≤substrate protein remaining %≤80%) | – | – | inhibition at 0.01 µM [3]: -5 to 0%; inhibition at 0.5 µM [3]: 80 to 100% |
| O=C1CCN(N2C(=O)c3ccc(N4CCC(CN5CCC(N6CCN(c7ncc(C(=O)Nc8ccc(OC(F)(F)Cl)cc8)cc7-c7cc[nH]n7)CC6)CC5)CC4)cc3C2=O)C(=O)N1 [GT-08358, N-(4-(chlorodifluoromethoxy)phenyl)-6-(4-(1-((1-(2-(2,4-dioxotetrahydropyrimidin-1(2H)-yl)-1,3-dioxoisoindolin-5-yl)piperidin-4-yl)methyl)piperidin-4-yl)piperazin-1-yl)-5-(1H-pyrazol-3-yl)nicotinamide] | A (0%≤substrate protein remaining %≤80%) | – | – | – |
| Nc1nnc(-c2ccccc2O)cc1N1CCN(CC2CCN(c3cccc4c3C(=O)N(N3CCC(=O)NC3=O)C4=O)CC2)CC1 [GT-05070, 4-(4-((4-(3-amino-6-(2-hydroxyphenyl)pyridazin-4-yl)piperazin-1-yl)methyl)piperidin-1-yl)-2-(2,4-dioxotetrahydropyrimidin-1(2H)-yl)isoindoline-1,3-dione] | – | A (0%≤substrate protein remaining %≤80%) | B (80%<substrate protein remaining %≤100%) | – |
| Cc1ccc(C(=O)Nc2ccc(CN3CCN(CC4CCN(c5ccc6c(c5)C(=O)N(N5CCC(=O)NC5=O)C6=O)CC4)CC3)c(C(F)(F)F)c2)cc1C#Cc1cnc2cccnn12 [GT-08352, N-(4-((4-((1-(2-(2,4-dioxotetrahydropyrimidin-1(2H)-yl)-1,3-dioxoisoindolin-5-yl)piperidin-4-yl)methyl)piperazin-1-yl)methyl)-3-(trifluoromethyl)phenyl)-3-(imidazo[1,2-b]pyridazin-3-ylethynyl)-4-methylbenzamide] | A (0%≤substrate protein remaining %≤80%) | – | – | inhibition at 0.01 µM [1]: 15 to 20%; inhibition at 0.5 µM [1]: 20 to 30%; inhibition at 0.01 µM [3]: 30 to 40%; inhibition at 0.5 µM [3]: 80 to 100% |

Further lines, with some results ahead:

| Degradation of substrate protein C-ABL; BCR-ABL (substrate protein remaining %) (C-ABL) | Degradation of substrate protein BRM (substrate protein remaining %) (BRM) | Structure (SMILES) | Degradation of substrate protein BRG1 (substrate protein remaining %) (BRG1) | also measured |
| --- | --- | --- | --- | --- |
| – | A (0%≤substrate protein remaining %≤80%) | Nc1nnc(-c2cc(F)ccc2O)cc1N1CCN(Cc2ccc3c(c2)CN(N2CCC(=O)NC2=O)C3=O)CC1 [GT-05061, 1-(5-((4-(3-amino-6-(5-fluoro-2-hydroxyphenyl)pyridazin-4-yl)piperazin-1-yl)methyl)-1-oxoisoindolin-2-yl)dihydropyrimidine-2,4 (1H,3H)-dione] | B (80%<substrate protein remaining %≤100%) | – |
| – | A (0%≤substrate protein remaining %≤80%) | Nc1nnc(-c2ccccc2O)cc1N1CCN(Cc2ccc3c(c2)CN(N2CCC(=O)NC2=O)C3=O)CC1 [GT-04952, 1-(5-((4-(3-amino-6-(2-hydroxyphenyl)pyridazin-4-yl)piperazin-1-yl)methyl)-1-oxoisoindolin-2-yl)dihydropyrimidine-2,4 (1H,3H)-dione] | A (0%≤substrate protein remaining %≤80%) | – |
| – | A (0%≤substrate protein remaining %≤80%) | Nc1nnc(-c2cc(F)ccc2O)cc1N1CCN(CC2CCN(C3CCN(c4ccc5c(c4)C(=O)N(N4CCC(=O)NC4=O)C5=O)CC3)CC2)CC1 [GT-05094, 5-(4-((4-(3-amino-6-(5-fluoro-2-hydroxyphenyl)pyridazin-4-yl)piperazin-1-yl)methyl)-[1,4′-bipiperidin]-1′-yl)-2-(2,4-dioxotetrahydropyrimidin-1(2H)-yl)isoindoline-1,3-dione] | B (80%<substrate protein remaining %≤100%) | – |
| – | A (0%≤substrate protein remaining %≤80%) | Nc1nnc(-c2ccccc2O)cc1N1CCN(Cc2ccc3c(c2)C(=O)N(N2CCC(=O)NC2=O)C3=O)CC1 [GT-05071, 5-((4-(3-amino-6-(2-hydroxyphenyl)pyridazin-4-yl)piperazin-1-yl)methyl)-2-(2,4-dioxotetrahydropyrimidin-1(2H)-yl)isoindoline-1,3-dione] | B (80%<substrate protein remaining %≤100%) | – |
